The term IC50 denotes the concentration at which inhibition is half-maximal.

These results are taken from patent publication US11744824B2, “2-amino-3-carbonyl imidazopyridine and pyrazolopyridine compounds” (1ST Biotherapeutics, Inc., priority 2020, dated 2023).

Test [1] addresses GST-tagged recombinant human RIP2 (Homo sapiens (Human), UniProt O43353). As to the kind of experiment: RIP2 Kinase Assay (ADP-Glo). It is filed as biochemical. Particulars: in vitro kinase activity, ATP 25 μM. The protocol:
GST-tagged recombinant human RIP2 (25 ng) is incubated with 5 μL of compounds (0.5% DMSO), 5 μL of MBP (0.5 μg/μl) and 5 μL of ATP (25 μM) in buffer (40 mM Tris, 7.5; 20 mM MgCl2; 0.1 mg/ml BSA; 50 μM DTT). The assay was started by incubating the reaction mixture in a 96-well plate at 30° C. for 60 minutes. After the incubation, 25 μL ADP-Glo reagent was added, and the reaction was incubated at 30° C. for 40 minutes to stop the reaction and degrade residual ATP. The ADP product was then converted to ATP by adding 50 μL per well of detection reagent. Luminescence was detected after 30 minutes room temperature incubation with the Molecular device I3X plate reader. The IC50 values were calculated from a series of percent inhibition values determined at a range of inhibitor concentration using software routines as implemented in the GraphPad Prism 7 software and SigmaPlot 13.0.
In general terms: ADP-Glo first removes unused ATP, then detects ADP through luciferase.

In test [2] the test system is IL-6 secretion in BV-2 mouse microglia cells. In words: IL-6 Secretion in BV-2 Cell (L18-MDP stimulated, ELISA). It is filed as cell-based. Particulars: BV-2 cells, 10 μg/ml L18-MDP, 24 hr. The protocol:
IL-6 Secretion in BV-2 Cell
BV-2 mouse microglia cells were kindly provided from Dr. Bae in Korea Institute of Science and Technology (KIST). BV-2 cells were thawed and suspended in Dulbecco's modified eagle medium (DMEM) supplemented with 10% fetal bovine serum (FBS) and 1% Penicillin/Streptomycin. Cells were seeded into 96 well plates at 2×10^4 cells/well and allowed to attach for 24 hr. On the day of the experiment, various concentration of FB compounds was treated, and cells were stimulated with 10 μg/ml L18-MDP. After 24 hr incubation, supernatant was collected for cytokine assay.
Absorbance at 450 nm was measured using SpectraMax i3X microplate reader (Molecular Device). Values of media-only wells were subtracted and % inhibition for each compound concentration relative to the DMSO/L18-MDP-treated controls (100%) was calculated. The IC50 values were calculated from a series of percent activity values using software as implemented in the GraphPad Prism 7 software and SigmaPlot 13.0.
(ELISA stands for enzyme-linked immunosorbent assay.)

Each structure is given as a SMILES string.

Chain of GST-tagged recombinant human RIP2 (O43353 whole entry): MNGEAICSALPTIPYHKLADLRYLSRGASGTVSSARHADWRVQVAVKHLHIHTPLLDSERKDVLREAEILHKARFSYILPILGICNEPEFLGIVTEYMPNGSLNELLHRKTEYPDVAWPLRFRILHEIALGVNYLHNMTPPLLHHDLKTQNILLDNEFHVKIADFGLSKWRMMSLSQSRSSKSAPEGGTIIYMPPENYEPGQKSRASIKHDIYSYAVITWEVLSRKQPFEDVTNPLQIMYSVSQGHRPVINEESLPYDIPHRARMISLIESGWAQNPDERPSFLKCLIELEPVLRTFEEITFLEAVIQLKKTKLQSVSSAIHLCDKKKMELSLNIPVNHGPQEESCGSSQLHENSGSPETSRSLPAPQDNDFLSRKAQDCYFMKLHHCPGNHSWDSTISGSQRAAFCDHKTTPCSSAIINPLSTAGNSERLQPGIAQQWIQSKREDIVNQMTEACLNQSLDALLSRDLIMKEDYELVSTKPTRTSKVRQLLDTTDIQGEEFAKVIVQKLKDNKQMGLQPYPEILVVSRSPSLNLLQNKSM

For `Cc1ccc2[nH]ncc2c1-c1ccc2nc(N)c(C(=O)C3CC3)n2c1` [Example 3], the IC50 in test [1] was 1 to 100 nM; in test [2], more than 1000 nM.

As to `Nc1nc2ccc(-c3cnc4[nH]ccc4c3)cn2c1C(=O)[C@@H]1C[C@@H]1F` [Example 32], the IC50 in test [1] was in the range of 1 to 100 nM; in test [2], 101 to 500 nM.

As to `Nc1nc2ccc(-c3cnc4[nH]ccc4c3Cl)cn2c1C(=O)[C@@H]1C[C@@H]1F` [Example 41], the IC50 in test [1] fell in the range of 1 to 100 nM; in test [2], 101 to 500 nM.

On to `Nc1nc2ccc(-c3cccc(F)c3Cl)cn2c1C(=O)[C@@H]1C[C@@H]1F` [Example 44], for which the values for the 50% inhibitory concentration (IC50) in test [1] and in test [2] were 1 to 100 nM and 501 to 1000 nM, respectively. On the same counts, the results for `Nc1nc2ccc(-c3c(Cl)c(F)cc4[nH]ncc34)cn2c1C(=O)[C@@H]1C[C@@H]1F` [Example 64] are 1 to 100 nM and 101 to 500 nM.

In the case of `CN(C)c1c(F)c(Cl)c(-c2ccc3nc(N)c(C(=O)[C@@H]4C[C@@H]4F)n3c2)c2cn[nH]c12` [Example 65], the IC50 in test [1] and in test [2] was more than 1000 nM each time. `Nc1nc2ccc(-c3ccc4[nH]ccc4c3)cn2c1C(=O)c1ccccn1` [Example 67]: the IC50 in test [1] is 1 to 100 nM; in test [2], 501 to 1000 nM. Taken in the same sequence, the figures for `Nc1nc2ccc(-c3cnc4[nH]ccc4c3)cn2c1C(=O)c1ccccn1` [Example 68] were 1 to 100 nM and 101 to 500 nM. Taken in the same sequence, the figures for `Nc1nc2ccc(-c3cnc4[nH]ccc4c3F)cn2c1C(=O)[C@@H]1C[C@@H]1F` [Example 69] were 1 to 100 nM and 501 to 1000 nM. Regarding `Nc1nc2ccc(-c3ccc4[nH]ccc4c3Cl)cn2c1C(=O)[C@@H]1C[C@@H]1F` [Example 73], the IC50 in test [1] is 1 to 100 nM; in test [2] it was 101 to 500 nM. On to `Cc1c(-c2ccc3nc(N)c(C(=O)c4ccccn4)n3c2)cnc2[nH]ccc12` [Example 74], for which the IC50 lay within 1 to 100 nM in test [1] and 101 to 500 nM in test [2].

Turning to `Nc1nc2ccc(-c3cnc4[nH]ccc4c3Cl)cn2c1C(=O)c1ccccn1` [Example 75], the IC50 in test [1] lay within 1 to 100 nM; in test [2] it was 501 to 1000 nM. Taken in the same sequence, the figures for `Nc1nc2ccc(-c3cnc4[nH]ccc4c3)cn2c1C(=O)c1ncccn1` [Example 79] were 1 to 100 nM and more than 1000 nM. Taken in the same sequence, the figures for `Cc1c(-c2ccc3nc(N)c(C(=O)C4CNC4)n3c2)cnc2[nH]ccc12` [Example 82] were 1 to 100 nM and more than 1000 nM.

On to `Nc1nc2ccc(-c3cnc4[nH]ccc4c3Cl)cn2c1C(=O)C1CNC1` [Example 83], for which the IC50 in test [1] is 1 to 100 nM; in test [2] it was more than 1000 nM. In the case of `Cc1c(-c2ccc3nc(N)c(C(=O)c4ccncn4)n3c2)cnc2[nH]ccc12` [Example 84], the IC50 in test [1] fell in the range of 1 to 100 nM; in test [2], 501 to 1000 nM.

Consider `Cc1c(-c2ccc3nc(N)c(C(=O)c4ncccn4)n3c2)cnc2[nH]ccc12` [Example 85], for which the values for the IC50 in test [1] and in test [2] were 1 to 100 nM and 501 to 1000 nM, respectively. As for `Nc1nc2ccc(-c3cnc4[nH]ccc4c3)cn2c1C(=O)C1CNC1` [Example 86], the IC50 is 1 to 100 nM in test [1] and more than 1000 nM in test [2]. For the molecule `Cc1c(-c2ccc3nc(N)c(C(=O)[C@@H]4C[C@@H]4F)n3c2)ccc2[nH]ncc12` [Example 90], the IC50 was 1 to 100 nM in test [1] and 501 to 1000 nM in test [2]. Regarding `Cc1c(-c2ccc3nc(N)c(C(=O)C4CCNC4)n3c2)cnc2[nH]ccc12` (stereo not shown) [Example 94], the IC50 is 1 to 100 nM in test [1] and more than 1000 nM in test [2]. On the same counts, the results for `Nc1nc2ccc(-c3cnc4[nH]ccc4c3Cl)cn2c1C(=O)C1CCNC1` (stereo not shown) [Example 95] are 1 to 100 nM and more than 1000 nM. Taken in the same sequence, the figures for `Cc1ccc2[nH]ccc2c1-c1ccc2nc(N)c(C(=O)[C@@H]3C[C@@H]3F)n2c1` [Example 100] were 1 to 100 nM and 101 to 500 nM. `Nc1nc2ccc(-c3c(F)ccc4[nH]ccc34)cn2c1C(=O)[C@@H]1C[C@@H]1F` [Example 101]: the figures for the concentration for half-maximal inhibition (IC50) in test [1] and in test [2] were 1 to 100 nM and 501 to 1000 nM, respectively. For `Nc1nc2ccc(-c3ccccc3CCO)cn2c1C(=O)[C@@H]1C[C@@H]1F` [Example 128], the IC50 in test [1] was in the range of 101 to 500 nM. Still for that read-out and setting: next, `Nc1nc2ccc(-c3ccccc3CCCO)cn2c1C(=O)[C@@H]1C[C@@H]1F` [Example 129]: 101 to 500 nM; `Nc1nc2ccc(-c3ccccc3CCF)cn2c1C(=O)[C@@H]1C[C@@H]1F` [Example 130]: 101 to 500 nM; `Nc1nc2ccc(-c3cccc(F)c3CCCF)cn2c1C(=O)[C@@H]1C[C@@H]1F` [Example 131]: 101 to 500 nM. Still for that read-out and setting: next, `Nc1nc2ccc(-c3ccccc3CCCF)cn2c1C(=O)[C@@H]1C[C@@H]1F` [Example 132]: 101 to 500 nM; `Cc1c(N)cc(F)cc1-c1ccc2nc(N)c(C(=O)[C@@H]3C[C@@H]3F)n2c1` [Example 133]: 1 to 100 nM; `Cc1cc(-c2ccc3nc(N)c(C(=O)[C@@H]4C[C@@H]4F)n3c2)c(F)cc1N` [Example 134]: 1 to 100 nM.

For `COC(=O)c1c(N)nc2ccc(-c3cccc(F)c3C)cn12` [Example 135, methyl 2-amino-6-(3-fluoro-2-methylphenyl)imidazo[1,2-a]pyridine-3-carboxylate], the IC50 in test [1] lay within 101 to 500 nM. In the case of `Nc1nc2ccc(-c3cccc(F)c3CCF)cn2c1C(=O)[C@@H]1C[C@@H]1F` [Example 136], the IC50 in test [1] is more than 1000 nM. As for `CC(C)(C)OC(=O)NCc1ccccc1-c1ccc2nc(N)c(C(=O)[C@@H]3C[C@@H]3F)n2c1` [Example 137], the IC50 in test [1] is more than 1000 nM. The same measure, in the same setting: then `NCc1ccccc1-c1ccc2nc(N)c(C(=O)[C@@H]3C[C@@H]3F)n2c1` [Example 138], with more than 1000 nM; and `Nc1nc2ccc(-c3ccccc3CCF)cn2c1C(=O)[C@@H]1C[C@H]1F` [Example 139], with more than 1000 nM. For the molecule `Nc1nc2ccc(-c3ccccc3CCF)cn2c1C(=O)[C@H]1C[C@@H]1F` [Example 140], the half-maximal inhibitory concentration (IC50) in test [1] is more than 1000 nM. Same read-out and setting: then `Cc1ccc(N)cc1-c1ccc2nc(N)c(C(=O)[C@@H]3C[C@@H]3F)n2c1` [Example 142], with 1 to 100 nM; and `Cc1cccc(N)c1-c1ccc2nc(N)c(C(=O)[C@@H]3C[C@@H]3F)n2c1` [Example 143], with more than 1000 nM. Still for that read-out and setting: then `CO/C=C/c1c(F)cccc1-c1ccc2nc(N)c(C(=O)[C@@H]3C[C@@H]3F)n2c1` [Example 144], with 101 to 500 nM; and `C=Cc1c(F)cccc1-c1ccc2nc(N)c(C(=O)[C@@H]3C[C@@H]3F)n2c1` [Example 145], with 1 to 100 nM; and `CNc1cc(F)cc(-c2ccc3nc(N)c(C(=O)[C@@H]4C[C@@H]4F)n3c2)c1C` [Example 146], with 101 to 500 nM. With `Cc1c(-c2ccc3nc(N)c(C(=O)[C@@H]4C[C@@H]4F)n3c2)cc(F)cc1N(C)C` [Example 147], in test [1], the IC50 is 101 to 500 nM. Still for that read-out and setting: then `Cc1c(F)cccc1Nc1ccc2nc(N)c(C(=O)[C@@H]3C[C@@H]3F)n2c1` [Example 148, (2-amino-6-((3-fluoro-2-methylphenyl)amino)imidazo[1,2-a]pyridin-3-yl)((1S,2S)-2-fluorocyclopropyl)methanone], with 101 to 500 nM; and `CN(C)c1c(F)c(Cl)c(-c2ccc3nc(N)c(C(=O)NC4CC4)n3c2)c2cn[nH]c12` [Example 149], with more than 1000 nM; and `CSc1c(F)c(Cl)c(-c2ccc3nc(N)c(C(=O)O[C@@H]4COC[C@H]4C)n3c2)c2cn[nH]c12` [Example 151, (3S,4R)-4-methyltetrahydrofuran-3-yl 2-amino-6-(5-chloro-6-fluoro-7-(methylthio)-1H-indazol-4-yl)imidazo[1,2-a]pyridine-3-carboxylate], with more than 1000 nM. For the molecule `Cc1c(F)cc(N)cc1-c1ccc2nc(N)c(C(=O)[C@@H]3C[C@@H]3F)n2c1` [Example 155], the IC50 in test [1] was 1 to 100 nM.

As to `Nc1nc2ccc(-c3ccc4[nH]ccc4c3)cn2c1C(=O)[C@H]1C[C@H]1F` [Example 156], the IC50 in test [1] is 1 to 100 nM. For `Nc1nc2ccc(-c3ccc4[nH]ccc4c3)cn2c1C(=O)[C@H]1C[C@@H]1F` [Example 157], the IC50 in test [1] was in the range of 1 to 100 nM.

Turning to `Nc1nc2ccc(-c3ccc4[nH]ccc4c3)cn2c1C(=O)[C@@H]1C[C@H]1F` [Example 158], in test [1], the IC50 lay in the range of 1 to 100 nM. The same measure, in the same setting: next, `Cc1c(-c2ccc3nc(N)c(C(=O)[C@H]4C[C@H]4F)n3c2)ccc2[nH]ccc12` [Example 159]: 1 to 100 nM; `Cc1c(F)cccc1Oc1ccc2nc(N)c(C(=O)[C@@H]3C[C@@H]3F)n2c1` [Example 160]: 101 to 500 nM. Same read-out and setting: then `Cc1c(-c2ccc3nc(N)c(C(=O)[C@H]4C[C@@H]4F)n3c2)ccc2[nH]ccc12` [Example 161], with 1 to 100 nM; and `Cc1c(-c2ccc3nc(N)c(C(=O)[C@@H]4C[C@H]4F)n3c2)ccc2[nH]ccc12` [Example 162], with 1 to 100 nM.
